Reference: patent publication US20250059174A1, “Pharmaceutical Compounds and Compositions as C-Kit Kinase Inhibitors” (Enanta Pharmaceuticals, Inc., priority 2023, published 2025)

Experiments:
[1] = biological target: Recombinant human c-KIT kinase (Homo sapiens (Human), UniProt P10721); experiment: c-KIT kinase chemiluminescence assay (ADP-Glo); type: biochemical; details: ATP 50 μM
Summary of the method: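 Recombinant human c-KIT preincubated 30 min at RT in 40 mM Tris pH 7.5, 20 mM MgCl2, 0.1 mg/mL BSA, 50 μM DTT, then reacted 2 h at RT with ATP and polyEY substrate. ADP-Glo luminescence readout; activity normalized to high/low controls, IC50 and Hill coefficient from inhibitor-versus-normalized-response fit.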

M-07e cells = experiment: M-07e cellular assay (SCF-mediated cell proliferation); type: cell-based; details: Homo sapiens, 72 hours, CellTiter Glo
Summary of the method: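 CellTiter Glo luminescence after 72 h compound exposure in SCF (EC90)-stimulated M-07e cells expressing endogenous human c-KIT.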

Sequence of Recombinant human c-KIT kinase (P10721 26-976): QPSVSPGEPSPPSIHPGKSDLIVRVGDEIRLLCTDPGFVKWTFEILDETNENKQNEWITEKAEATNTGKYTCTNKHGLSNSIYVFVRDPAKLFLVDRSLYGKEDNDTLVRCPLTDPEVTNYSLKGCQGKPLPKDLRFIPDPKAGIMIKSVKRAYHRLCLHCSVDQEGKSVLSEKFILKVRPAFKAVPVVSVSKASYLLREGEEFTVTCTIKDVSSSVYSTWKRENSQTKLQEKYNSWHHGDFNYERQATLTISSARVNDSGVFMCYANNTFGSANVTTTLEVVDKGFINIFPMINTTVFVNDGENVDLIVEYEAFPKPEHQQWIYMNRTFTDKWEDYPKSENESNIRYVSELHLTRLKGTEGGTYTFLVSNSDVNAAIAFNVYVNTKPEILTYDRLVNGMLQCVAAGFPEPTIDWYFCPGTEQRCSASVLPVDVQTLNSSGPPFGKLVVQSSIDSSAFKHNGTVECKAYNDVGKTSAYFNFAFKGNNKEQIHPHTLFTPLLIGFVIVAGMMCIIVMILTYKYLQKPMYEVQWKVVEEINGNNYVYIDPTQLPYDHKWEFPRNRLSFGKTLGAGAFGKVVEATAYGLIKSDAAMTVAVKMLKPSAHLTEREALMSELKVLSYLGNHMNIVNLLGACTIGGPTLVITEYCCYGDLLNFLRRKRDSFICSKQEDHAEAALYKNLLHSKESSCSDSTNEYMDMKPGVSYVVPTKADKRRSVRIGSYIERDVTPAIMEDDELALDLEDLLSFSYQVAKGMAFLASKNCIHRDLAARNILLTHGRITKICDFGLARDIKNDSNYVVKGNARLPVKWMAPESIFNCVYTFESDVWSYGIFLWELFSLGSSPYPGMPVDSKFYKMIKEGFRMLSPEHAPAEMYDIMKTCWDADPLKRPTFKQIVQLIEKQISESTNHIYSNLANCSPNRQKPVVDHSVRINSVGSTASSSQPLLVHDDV

IC50 [1] [nM] | SMILES | EC50 (M-07e cells) [nM]
< 100 | Cc1ccc(-c2noc([C@H]3C[C@@H](OC(F)(F)F)C3)n2)cc1NC(=O)c1cnc(-c2ccc3c(c2)CC(=O)N3)o1 [Example 308-3] | < 100
100 to 1000 | Cc1ccc(-c2noc([C@H]3C[C@@H]3F)n2)cc1NC(=O)c1cnc(-c2ccc3c(c2)C2(CC2)C(=O)N3)o1 [Example 308-4] | 100 to 1000
> 1000 | Cc1ccc(-c2noc([C@H]3C[C@@H]3F)n2)cc1NC(=O)c1cnc(-c2ccc3c(c2)C2(CCN(C(=O)OC(C)(C)C)CC2)C(=O)N3)o1 [Example 308-8] | 100 to 1000
> 1000 | Cc1ncc(-c2noc([C@H]3C[C@@H]3F)n2)cc1NC(=O)c1cnc(-c2ccc3c(c2)CC(=O)N3)o1 [Example 308-12] | 100 to 1000
< 100 | Cc1ccc(-c2noc([C@H]3C[C@@H]3F)n2)cc1NC(=O)c1cnc(-c2ccc3[nH]c(=O)ccc3c2)o1 [Example 308-14] | < 100
100 to 1000 | Cc1ccc(-c2noc([C@H]3C[C@@H]3F)n2)cc1NC(=O)c1cnc(-c2ccc3c(c2)CCC(=O)N3)o1 [Example 308-15] | 100 to 1000
> 1000 | CC(=O)Nc1ccc(-c2ncc(C(=O)Nc3cc(-c4noc([C@H]5C[C@@H]5F)n4)ccc3C)o2)cn1 [Example 308-20] | 100 to 1000
< 100 | Cc1ccc(-c2noc([C@H]3C[C@@H]3F)n2)cc1NC(=O)c1cnc(-c2ccc3[nH]nc(C)c3c2)o1 [Example 308-21] | < 100
< 100 | Cc1ccc(-c2noc([C@H]3C[C@@H]3F)n2)cc1NC(=O)c1cnc(-c2ccc3c(c2)OCCN3)o1 [Example 308-24] | < 100
100 to 1000 | Cc1ccc(-c2noc([C@H]3C[C@@H]3F)n2)cc1NC(=O)c1cnc(-c2ccc3c(c2)OC(C)(C)C(=O)N3)o1 [Example 308-25] | 100 to 1000
< 100 | CCOC(=O)c1cc2cc(-c3ncc(C(=O)Nc4cc(-c5noc([C@H]6C[C@@H]6F)n5)ccc4C)o3)ccc2[nH]1 [Example 308-26] | 100 to 1000
< 100 | Cc1cc2cc(-c3ncc(C(=O)Nc4cc(-c5noc([C@H]6C[C@@H]6F)n5)ccc4C)o3)ccc2[nH]1 [Example 308-27] | < 100
100 to 1000 | Cc1ccc(-c2noc([C@H]3C[C@@H]3F)n2)cc1NC(=O)c1cnc(-c2ccc3cn(C)nc3c2)o1 [Example 308-31] | 100 to 1000
< 100 | Cc1ccc(-c2noc([C@H]3C[C@@H]3F)n2)cc1NC(=O)c1cnc(-c2ccc3cnn(C)c3c2)o1 [Example 308-32] | 100 to 1000
> 1000 | Cc1ccc(-c2noc([C@H]3C[C@@H]3F)n2)cc1NC(=O)c1cnc(-c2cccc3c2NC(=O)C3)o1 [Example 308-33] | > 1000
100 to 1000 | Cc1ccc(-c2noc([C@H]3C[C@@H]3F)n2)cc1NC(=O)c1cnc(-c2cccc3[nH]c(=O)[nH]c23)o1 [Example 308-34] | > 1000
100 to 1000 | Cc1ccc(-c2noc([C@H]3C[C@@H]3F)n2)cc1NC(=O)c1cnc(-c2ccc3c(c2)oc(=O)n3C)o1 [Example 308-35] | 100 to 1000
< 100 | Cc1ccc(-c2noc([C@H]3C[C@@H]3F)n2)cc1NC(=O)c1cnc(-c2ccc3c(c2)NCCO3)o1 [Example 308-36] | < 100
100 to 1000 | Cc1ccc(-c2noc([C@H]3C[C@@H]3F)n2)cc1NC(=O)c1cnc(-c2ccc3c(c2)C(C)(C)C(=O)N3)o1 [Example 308-37] | 100 to 1000
100 to 1000 | Cc1ccc(-c2noc([C@H]3C[C@@H]3F)n2)cc1NC(=O)c1cnc(-c2ccc3nc[nH]c3c2)o1 [Example 308-39] | 100 to 1000
< 100 | Cc1nc2cc(-c3ncc(C(=O)Nc4cc(-c5noc([C@H]6C[C@@H]6F)n5)ccc4C)o3)ccc2[nH]1 [Example 308-40] | < 100
100 to 1000 | Cc1ccc(-c2noc([C@H]3C[C@@H]3F)n2)cc1NC(=O)c1cnc(-c2ccc3nnn(C)c3c2)o1 [Example 308-46] | 100 to 1000
100 to 1000 | Cc1ccc(-c2noc([C@H]3C[C@@H]3F)n2)cc1NC(=O)c1cnc(-c2ccc3c(c2)NC(=O)CO3)o1 [Example 308-52] | 100 to 1000

The next lines start with the compound.

SMILES | IC50 [1] [nM] | EC50 (M-07e cells) [nM]
Cc1ccc(-c2noc([C@H]3C[C@@H]3F)n2)cc1NC(=O)c1cnc(-n2cccn2)o1 [Example 308-5] | > 1000 | > 1000
Cc1cc(C)n(-c2ncc(C(=O)Nc3cc(-c4noc([C@H]5C[C@@H]5F)n4)ccc3C)o2)n1 [Example 308-6] | > 1000 | > 1000
Cc1ccc(-c2noc([C@H]3C[C@@H]3F)n2)cc1NC(=O)c1cnc(-c2c(C)nn(CC(C)(C)O)c2C)o1 [Example 308-7] | > 1000 | > 1000
Cc1ccc(-c2noc([C@H]3C[C@@H]3F)n2)cc1NC(=O)c1cnc(-c2ccc3c(c2)C2(CCNCC2)C(=O)N3)o1 [Example 308-9] | 100 to 1000 | > 1000
Cc1cc(F)c(-c2noc([C@H]3C[C@@H]3F)n2)cc1NC(=O)c1cnc(-c2ccc3c(cnn3C(=O)OC(C)(C)C)c2)o1 [Example 308-10] | > 1000 | 100 to 1000
Cc1cc(F)c(-c2noc([C@H]3C[C@@H]3F)n2)cc1NC(=O)c1cnc(-c2ccc3[nH]ncc3c2)o1 [Example 308-11] | 100 to 1000 | 100 to 1000
Cc1ccc(-c2noc([C@H]3C[C@@H]3F)n2)cc1NC(=O)c1cnc(-c2ccc(-n3cccn3)cc2)o1 [Example 308-13] | > 1000 | > 1000
Cc1ccc(-c2noc([C@H]3C[C@@H]3F)n2)cc1NC(=O)c1cnc(-c2ccc(-c3cnn(C)c3)cc2)o1 [Example 308-16] | 100 to 1000 | 100 to 1000
Cc1ccc(-c2noc([C@H]3C[C@@H]3F)n2)cc1NC(=O)c1cnc(-c2cnc3[nH]ccc3c2)o1 [Example 308-17] | < 100 | < 100
Cc1ccc(-c2noc([C@H]3C[C@@H]3F)n2)cc1NC(=O)c1cnc(-c2ccc3nccn3c2)o1 [Example 308-18] | 100 to 1000 | 100 to 1000
CC(=O)Nc1ccc(-c2ncc(C(=O)Nc3cc(-c4noc([C@H]5C[C@@H]5F)n4)ccc3C)o2)cc1 [Example 308-19] | 100 to 1000 | 100 to 1000
Cc1ccc(-c2noc([C@H]3C[C@@H]3F)n2)cc1NC(=O)c1cnc(-c2ccc(NS(C)(=O)=O)cc2)o1 [Example 308-22] | 100 to 1000 | 100 to 1000
Cc1ccc(-c2noc([C@H]3C[C@@H]3F)n2)cc1NC(=O)c1cnc(-c2cccc3cn[nH]c23)o1 [Example 308-23] | < 100 | > 1000
Cc1ccc(-c2noc([C@H]3C[C@@H]3F)n2)cc1NC(=O)c1cnc(-c2cccc(NS(C)(=O)=O)c2)o1 [Example 308-28] | 100 to 1000 | 100 to 1000
Cc1ccc(-c2noc([C@H]3C[C@@H]3F)n2)cc1NC(=O)c1cnc(-c2cccc3[nH]ccc23)o1 [Example 308-29] | < 100 | 100 to 1000
CNS(=O)(=O)c1cccc(-c2ncc(C(=O)Nc3cc(-c4noc([C@H]5C[C@@H]5F)n4)ccc3C)o2)c1 [Example 308-30] | 100 to 1000 | 100 to 1000
Cc1ccc(-c2noc([C@H]3C[C@@H]3F)n2)cc1NC(=O)c1cnc(-c2cccc3nc[nH]c23)o1 [Example 308-38] | 100 to 1000 | 100 to 1000
Cc1ccc(-c2noc([C@H]3C[C@@H]3F)n2)cc1NC(=O)c1cnc(-c2cccc3cc[nH]c23)o1 [Example 308-41] | 100 to 1000 | > 1000
Cc1ccc(-c2noc([C@H]3C[C@@H]3F)n2)cc1NC(=O)c1cnc(-c2ccc(F)c3[nH]ccc23)o1 [Example 308-42] | 100 to 1000 | 100 to 1000
Cc1ccc(-c2noc([C@H]3C[C@@H]3F)n2)cc1NC(=O)c1cnc(-c2cccc3[nH]ncc23)o1 [Example 308-43] | < 100 | 100 to 1000
Cc1ccc(-c2noc([C@H]3C[C@@H]3F)n2)cc1NC(=O)c1cnc(-c2ccc(F)c3[nH]ncc23)o1 [Example 308-44] | 100 to 1000 | 100 to 1000
Cc1ccc(-c2noc([C@H]3C[C@@H]3F)n2)cc1NC(=O)c1cnc(-c2ccc(NC(N)=O)cc2)o1 [Example 308-47] | 100 to 1000 | 100 to 1000
COC(=O)Nc1ccc(-c2ncc(C(=O)Nc3cc(-c4noc([C@H]5C[C@@H]5F)n4)ccc3C)o2)cc1 [Example 308-48] | 100 to 1000 | 100 to 1000
